Experiment: Stability in mouse plasma
Format: in vitro ADME
Conditions: mouse plasma; 1 h, 37° C.
Experimental: SDC-TRAP-0022 and SDC-TRAP-0028 were incubated in human and mouse plasma for 2 h at 37° C. and assayed for integrity at 0.25, 0.5, 1 and 2 h. The values reported below are the remaining of the parent compound at the end of the 2 h incubation period.
This solution was used to precipitate all plasma samples in the study. 200 μL was pipetted into a 96 deepwell plate over dry ice. 10 μL of 1 mM stock in DMSO was added to a 1.5 mL microfuge tube, then 990 μL of plasma. Samples were mixed by vortex, then 50 μL of each sample was added in triplicate to a 96-well plate containing internal standard solution. This was designated the 0 hour time point sample. 250 μL of the remaining plasma sample was added to each of four 96 deepwell plates—one per time point. Samples were incubated at 37° C. with gentle shaking for 0.25, 0.5, and 1 hour. After each time point, one plate of each sample was removed from the shaker and placed on wet ice for approximately 2 minutes. 50 μL plasma aliquots (in triplicate) were added to the deepwell plate containing internal standard solution. After the last time point was extracted, the 96 deepwell plate was vortexed, then centrifuged at 2-8° C. 150 μL of supernatant was collected and 25 μL of water was added. Samples were mixed and analyzed by LC-MS/MS.
The stability of seven SDC-TRAP types in mouse plasma was measured as follows. 990 μL mouse plasma aliquots from a common stock were spiked with 10 μL of 1 mM stock of one of seven SDC-TRAP samples identified in the table below. Each sample was mixed and divided into 250 μL aliquots, each representing time points 0, 15 minutes, 30 minutes or 1 hour. At the prescribed time point, 3×50 μL samples were each mixed with 200 μL of methanol containing internal standard and held on dry ice until all time point samples were extracted. The samples collectively were vortex mixed for 1.5 minutes at 1500 rpm, then centrifuged at 4400 rpm for 10 minutes at 8° C.

SMILES | % Remaining
CCc1c2c(nc3ccc(OC(=O)N4CCN(Cc5ccc(-n6c(O)nnc6-c6cc(C(C)C)c(O)cc6O)cc5)CC4C)cc13)-c1cc3c(c(=O)n1C2)COC(=O)C3(O)CC (centres unmarked) [SDC-TRAP-0220, 4,11-diethyl-4-hydroxy-3,14-dioxo-3,4,12,14-tetrahydro-1H-pyrano[3′,4′:6,7]indolizino[1,2-b]quinolin-9-yl 4-(4-(3-(2,4-dihydroxy-5-isopropylphenyl)-5-hydroxy-4H-1,2,4-triazol-4-yl)benzyl)-2-methylpiperazine-1-carboxylate] | 78.3%
CCc1c2c(nc3ccc(OC(=O)N4CCCCC4C(=O)N4CCC(CCn5ccc6cc(-n7c(O)nnc7-c7cc(C(C)C)c(O)cc7O)ccc65)CC4)cc13)-c1cc3c(c(=O)n1C2)COC(=O)[C@]3(O)CC (stereo partly drawn) [SDC-TRAP-0215, (S)-4,11-diethyl-4-hydroxy-3,14-dioxo-3,4,12,14-tetrahydro-1H-pyrano[3′,4′:6,7]indolizino[1,2-b]quinolin-9-yl 2-(4-(2-(5-(3-(2,4-dihydroxy-5-isopropylphenyl)-5-hydroxy-4H-1,2,4-triazol-4-yl)-1H-indol-1-yl)ethyl)piperidine-1-carbonyl)piperidine-1-carboxylate] | 77.2%
CCc1c2c(nc3ccc(OC(=O)N4CCC(Cn5ccc6cc(-n7c(O)nnc7-c7cc(C(C)C)c(O)cc7O)ccc65)CC4)cc13)-c1cc3c(c(=O)n1C2)COC(=O)C3(O)CC (centres unmarked) [SDC-TRAP-0186] | 57.9%
CCNC(=O)c1nnc(-c2cc(C(C)C)c(O)cc2O)n1-c1ccc(Oc2ccc(N(C)C(=O)Oc3ccc4nc5c(c(CC)c4c3)Cn3c-5cc4c(c3=O)COC(=O)[C@]4(O)CC)cc2)cc1 [SDC-TRAP-0145, (S)-4,11-diethyl-4-hydroxy-3,14-dioxo-3,4,12,14-tetrahydro-1H-pyrano[3′,4′:6,7]indolizino[1,2-b]quinolin-9-yl (4-(4-(3-(2,4-dihydroxy-5-isopropylphenyl)-5-(ethylcarbamoyl)-4H-1,2,4-triazol-4-yl)phenoxy)phenyl)(methyl)carbamate] | 14.1%
CCNC(=O)c1nnc(-c2cc(C(C)C)c(O)cc2O)n1-c1ccc(OC2CCN(C(=O)C3CCN(C(=O)Oc4ccc5nc6c(c(CC)c5c4)Cn4c-6cc5c(c4=O)COC(=O)[C@]5(O)CC)C(C)C3)CC2)cc1 (stereo partly drawn) [SDC-TRAP-0213, (S)-4,11-diethyl-4-hydroxy-3,14-dioxo-3,4,12,14-tetrahydro-1H-pyrano[3′,4′:6,7]indolizino[1,2-b]quinolin-9-yl 4-(4-(4-(3-(2,4-dihydroxy-5-isopropylphenyl)-5-(ethylcarbamoyl)-4H-1,2,4-triazol-4-yl)phenoxy)piperidine-1-carbonyl)-2-methylpiperidine-1-carboxylate] | 74.7%
CCNC(=O)c1nnc(-c2cc(C(C)C)c(O)cc2O)n1-c1ccc(OC2CCN(C(=O)[C@@H]3CCCN3C(=O)Oc3ccc4nc5c(c(CC)c4c3)Cn3c-5cc4c(c3=O)COC(=O)[C@]4(O)CC)CC2)cc1 [SDC-TRAP-0209] | 67.1%
CCNC(=O)c1nnc(-c2cc(C(C)C)c(O)cc2O)n1-c1ccc(C(=O)N2CCN(C(=O)COC(=O)OC3(CC)C(=O)OCc4c3cc3n(c4=O)Cc4c-3nc3ccc(O)cc3c4CC)CC2)cc1 (centres unmarked) [SDC-TRAP-0202, 4,11-diethyl-9-hydroxy-3,14-dioxo-3,4,12,14-tetrahydro-1H-pyrano[3′,4′:6,7]indolizino[1,2-b]quinolin-4-yl (2-(4-(4-(3-(2,4-dihydroxy-5-isopropylphenyl)-5-(ethylcarbamoyl)-4H-1,2,4-triazol-4-yl)benzoyl)piperazin-1-yl)-2-oxoethyl) carbonate] | 21.2%
CCc1c2c(nc3ccc(O)cc13)-c1cc3c(c(=O)n1C2)COC(=O)C3(CC)OC(=O)CN1CCN(c2ccc(-n3c(O)nnc3-c3cc(C(C)C)c(O)cc3O)cc2)CC1 (centres unmarked) [SDC-TRAP-0056, 4,11-diethyl-9-hydroxy-3,14-dioxo-3,4,12,14-tetrahydro-1H-pyrano[3′,4′: 6,7]indolizino[1,2-b]quinolin-4-yl 2-(4-(4-(3-(2,4-dihydroxy-5-isopropylphenyl)-5-hydroxy-4H-1,2,4-triazol-4-yl)phenyl)piperazin-1-yl)acetate] | 78%
CCc1c2c(nc3ccc(O)cc13)-c1cc3c(c(=O)n1C2)COC(=O)C3(CC)OC(=O)N1CCN(Cc2ccc(-n3c(O)nnc3-c3cc(C(C)C)c(O)cc3O)cc2)CC1 (centres unmarked) [SDC-TRAP-0047, 4,11-diethyl-9-hydroxy-3,14-dioxo-3,4,12,14-tetrahydro-1H-pyrano[3′,4′:6,7]indolizino[1,2-b]quinolin-4-yl 4-(4-(3-(2,4-dihydroxy-5-isopropylphenyl)-5-hydroxy-4H-1,2,4-triazol-4-yl)benzyl)piperazine-1-carboxylate] | 89%
CCNC(=O)c1nnc(-c2cc(C(C)C)c(O)cc2O)n1-c1ccc(CN2CCC(C(=O)N3CCN(C(=O)Oc4ccc5nc6c(c(CC)c5c4)Cn4c-6cc5c(c4=O)COC(=O)C5(O)CC)C(C)C3)CC2)cc1 (centres unmarked) [SDC-TRAP-0185, 4,11-diethyl-4-hydroxy-3,14-dioxo-3,4,12,14-tetrahydro-1H-pyrano[3′,4′:6,7]indolizino[1,2-b]quinolin-9-yl 4-(1-(4-(3-(2,4-dihydroxy-5-isopropylphenyl)-5-(ethylcarbamoyl)-4H-1,2,4-triazol-4-yl)benzyl)piperidine-4-carbonyl)-2-methylpiperazine-1-carboxylate] | 68.1%
CCc1c2c(nc3ccc(O)cc13)-c1cc3c(c(=O)n1C2)COC(=O)C3(CC)OC(=O)CN1CCC(Cc2ccc(-n3c(O)nnc3-c3cc(C(C)C)c(O)cc3O)cc2)CC1 (centres unmarked) [SDC-TRAP-0071, 4,11-diethyl-9-hydroxy-3,14-dioxo-3,4,12,14-tetrahydro-1H-pyrano[3′,4′:6,7]indolizino[1,2-b]quinolin-4-yl 2-(4-(4-(3-(2,4-dihydroxy-5-isopropylphenyl)-5-hydroxy-4H-1,2,4-triazol-4-yl)benzyl)piperidin-1-yl)acetate] | 102%

Same assay, conditions: mouse, plasma, 1 h, 10 μM

SMILES | % Remaining
CCNC(=O)c1nnc(-c2cc(C(C)C)c(O)cc2O)n1-c1ccc(Oc2ccc(OC(=O)N(C)CCOC(=O)Nc3cccc4c3CN(C3CCC(=O)NC3=O)C4=O)cc2)cc1 (centres unmarked) | 51.2%
CC(C)c1cc(-c2nnc(O)n2-c2ccc(N3CCN(C(=O)c4ccc(COC(=O)Nc5cccc6c5CN(C5CCC(=O)NC5=O)C6=O)cc4)CC3)cc2)c(O)cc1O (centres unmarked) [SDC-TRAP-0156, 4-(4-(4-(3-(2,4-Dihydroxy-5-isopropylphenyl)-5-hydroxy-4H-1,2,4-triazol-4-yl)phenyl)piperazine-1-carbonyl)benzyl (2-(2,6-dioxopiperidin-3-yl)-1-oxoisoindolin-4-yl)carbamate] | 90.3%
CCNC(=O)c1nnc(-c2cc(C(C)C)c(O)cc2O)n1-c1ccc(CN2CCC(C(=O)N(C)CCCOC(=O)Nc3cccc4c3CN(C3CCC(=O)NC3=O)C4=O)CC2)cc1 (centres unmarked) [SDC-TRAP-0231, 3-(1-(4-(3-(2,4-dihydroxy-5-isopropylphenyl)-5-(ethylcarbamoyl)-4H-1,2,4-triazol-4-yl)benzyl)-N-methylpiperidine-4-carboxamido)propyl (2-(2,6-dioxopiperidin-3-yl)-1-oxoisoindolin-4-yl)carbamate] | 98.3%
CCNC(=O)c1nnc(-c2cc(C(C)C)c(O)cc2O)n1-c1ccc(OC2CCN(C(=O)Oc3c(C)cc(COC(=O)Nc4cccc5c4CN(C4CCC(=O)NC4=O)C5=O)cc3C)CC2)cc1 (centres unmarked) [SDC-TRAP-0187, 4-((((2-(2,6-dioxopiperidin-3-yl)-1-oxoisoindolin-4-yl)carbamoyl)oxy)methyl)-2,6-dimethylphenyl 4-(4-(3-(2,4-dihydroxy-5-isopropylphenyl)-5-(ethylcarbamoyl)-4H-1,2,4-triazol-4-yl)phenoxy)piperidine-1-carboxylate] | 102%
CCNC(=O)c1nnc(-c2cc(C(C)C)c(O)cc2O)n1-c1ccc(CN2CCC(C(=O)N[C@H](C(=O)Nc3cccc4c3CN(C3CCC(=O)NC3=O)C4=O)C(C)C)CC2)cc1 (stereo partly drawn) [SDC-TRAP-0163, 1-(4-(3-(2,4-dihydroxy-5-isopropylphenyl)-5-(ethylcarbamoyl)-4H-1,2,4-triazol-4-yl)benzyl)-N-((2S)-1-((2-(2,6-dioxopiperidin-3-yl)-1-oxoisoindolin-4-yl)amino)-3-methyl-1-oxobutan-2-yl)piperidine-4-carboxamide] | 93.0%
CCNC(=O)c1nnc(-c2cc(C(C)C)c(O)cc2O)n1-c1ccc(CN2CCC(C(=O)N3CCC(COC(=O)Nc4cccc5c4CN(C4CCC(=O)NC4=O)C5=O)CC3)CC2)cc1 (centres unmarked) [SDC-TRAP-0124, (1-(1-(4-(3-(2,4-Dihydroxy-5-isopropylphenyl)-5-(ethylcarbamoyl)-4H-1,2,4-triazol-4-yl)benzyl)piperidine-4-carbonyl)piperidin-4-yl)methyl (2-(2,6-dioxopiperidin-3-yl)-1-oxoisoindolin-4-yl)carbamate] | 112%
CC(C)c1cc(-c2nnc(O)n2-c2ccc(CN3CCN(C(=O)COC(=O)Nc4cccc5c4CN(C4CCC(=O)NC4=O)C5=O)CC3)cc2)c(O)cc1O (centres unmarked) [SDC-TRAP-0121, 2-(4-(4-(3-(2,4-dihydroxy-5-isopropylphenyl)-5-hydroxy-4H-1,2,4-triazol-4-yl)benzyl)piperazin-1-yl)-2-oxoethyl(2-(2,6-dioxopiperidin-3-yl)-1-oxoisoindolin-4-yl)carbamate] | 89.1%
CCNC(=O)c1nnc(-c2cc(C(C)C)c(O)cc2O)n1-c1ccc(C(=O)N2CCN(c3cc(C)c(OC(=O)Nc4cccc5c4CN(C4CCC(=O)NC4=O)C5=O)c(C)c3)CC2)cc1 (centres unmarked) [SDC-TRAP-0178, 4-(4-(4-(3-(2,4-dihydroxy-5-isopropylphenyl)-5-(ethylcarbamoyl)-4H-1,2,4-triazol-4-yl)benzoyl)piperazin-1-yl)-2,6-dimethylphenyl (2-(2,6-dioxopiperidin-3-yl)-1-oxoisoindolin-4-yl)carbamate] | 82.0%
CCNC(=O)c1nnc(-c2cc(C(C)C)c(O)cc2O)n1-c1ccc(CN2CCC(C(=O)N3CCC[C@H]3C(=O)Nc3cccc4c3CN(C3CCC(=O)NC3=O)C4=O)CC2)cc1 (stereo partly drawn) [SDC-TRAP-0164, 5-(2,4-dihydroxy-5-isopropylphenyl)-4-(4-((4-((2S)-2-((2-(2,6-dioxopiperidin-3-yl)-1-oxoisoindolin-4-yl)carbamoyl)pyrrolidine-1-carbonyl)piperidin-1-yl)methyl)phenyl)-N-ethyl-4H-1,2,4-triazole-3-carboxamide] | 98.0%

From patent US10675360B2 (MADRIGAL PHARMACEUTICALS, INC., priority 2014, dated 2020)
